Data set [1] in a line: Plasma and brain drug concentration after oral administration (HPLC-MS/MS). It is filed as in vivo. As for the experimental part:
[…] parameters can be represented as maximum concentration in plasma (Cmax), time taken until maximum concentration in plasma (Tmax), area under the plasma concentration-time curve (AUClast and AUCinf), and half-life (t1/2), and the like.
The compound of Example 2 was orally administered to ICR mice at a dose of 10 mg/kg, and drug concentration in mouse plasma was measured using HPLC-MS/MS spectroscopy at 0.5, 1, 2, 4, 8 and 24 hours. The mouse brains were removed at 2 or 24 hours, and drug concentration in the brain was measured using HPLC-MS/MS spectroscopy. The area under the plasma concentration v. time curve (AUCinf) was measured to be […], and at 2 hours after administration drug concentration in plasma was 398 ng/mL and brain drug concentration was measured at 683 ng/mL. […] Further, at 24 hours after administration, for Example 2, drug concentration in plasma was measured to be 5.6 ng/mL and drug concentration in the brain was measured at 11.4 ng/mL. With the brain-plasma drug concentration ratio at 2.04, drug exposure in the brain was still high.
The Comparative Example compound was orally administered to ICR mice at a dose of 10 mg/kg, and drug concentration in mouse plasma was measured using HPLC-MS/MS spectroscopy at 0.5, 1, 2, 4, 8 and 24 hours. The mouse brains were removed at 2 or 24 hours, and drug concentration in the brain was measured using HPLC-MS/MS spectroscopy.

The test system of the next data set is H9C2 cells. In words: Protective effect on heart cells against t-BHP (LDH release). The settings on record: H9C2, t-BHP 400 μM, 2 hours, read-out: EC50 (μM), Cell Protection Effect against t-BHP in Heart Cells. Type of data set: cell-based. As for the experimental part: In order to identify the protective effect with regard to heart cells, H9C2 cells were divided into 96-well plates by 1.5×10^4, and cultured for 24 hours. The respective wells were treated with compounds of the examples 3× serial diluted to final concentrations of 30, 10, 3, 1, 0.3, 0.1, 0.03 and 0.01 μM, then incubated for 15 to 20 minutes. After treating with t-BHP with a final concentration of 400 μM, incubation was performed for 2 hours. To confirm the protective effect of each compound, a Cytotoxicity LDH assay kit [Dojindo; CK12] was used to measure the degree of extracellular secretion of LDH. After 2-hour treatment of the cells with t-BHP was completed, 100 μL each of the supernatant in which the cells were placed was collected and moved to a new 96-well plate. 100 μL/well of the assay buffer included in the kit (same amount as the sample) was added, followed by wrapping with foil and reacting for 30 minutes at room temperature. Observing the change of color in the sample, 50 μL/well of stop solution was added, then an iD3 spectrometer was used to measure absorbance at 490 nm and calculate the EC50 values. The EC50 of the compounds of the examples is preferably no more than 1.0 μM, and more preferably no more than 0.3 μM.
(In general: Release of lactate dehydrogenase indicates damage to the cell membrane.)

The mark [2] stands for this setting: ICR mouse, oral 10 mg/kg, 2 hr, 10 mg/kg.
Setting [3] is: ICR mouse, oral 10 mg/kg, 24 hr, 10 mg/kg.

This is an account of results in patent publication US20250122155A1, “NOVEL INDOLE DERIVATIVE, PHARMACEUTICAL COMPOSITION COMPRISING SAME, AND USE THEREOF” (MITOIMMUNE THERAPEUTICS INC., priority 2021, published 2025).

Where two headings read alike, the source gives them in different places.

`OCc1cc(NC2CCCC2)c2[nH]c(-c3ccccc3)cc2c1` [Comparative Example, reference compound]: the “drug concentration in brain” value in data set [1] (setting [2]) is given as 95 ng/mL; in data set [1] (setting [3]), “no drug concentration was measured”. In addition, the “drug concentration in plasma” value is reported as 1122 ng/mL in data set [1] (setting [2]) and “no drug concentration was measured” in data set [1] (setting [3]). The AUC(0-inf) in data set [1] (ICR mouse, oral 10 mg/kg, plasma, read-out: area under the plasma concentration v. time curve (AUCinf)) was 5460 ng·h/mL. The concentration at 2 h amounted to 95 ng/mL in data set [1] (ICR, mouse, brain, po, 10 mg/kg, 2 hr, read-out: drug concentration in brain) and 1120 ng/mL in data set [1] (ICR, mouse, plasma, po, 10 mg/kg, 2 hr, read-out: drug concentration in plasma). Also, the concentration at 24 h in data set [1] (ICR, mouse, brain, po, 10 mg/kg, 24 hr, read-out: drug concentration in brain) was found to be 0 ng/mL; in data set [1] (ICR, mouse, plasma, po, 10 mg/kg, 24 hr, read-out: drug concentration in plasma), 0 ng/mL. The concentration at 0.5 h in data set [1] (ICR, mouse, plasma, po, 10 mg/kg, 0.5 hr) was determined as 1640 ng/mL. Further, the concentration at 1 h in data set [1] (ICR, mouse, plasma, po, 10 mg/kg, 1 hr) was 2110 ng/mL. The compound also showed a concentration at 4 h in data set [1] (ICR, mouse, plasma, po, 10 mg/kg, 4 hr) of 389 ng/mL. The same compound gave a concentration at 8 h in data set [1] (ICR, mouse, plasma, po, 10 mg/kg, 8 hr) of 50.8 ng/mL. The AUC(0-t) came out at 5360 ng·h/mL in data set [1] (ICR, mouse, plasma, po, 10 mg/kg, plasma, read-out: area under the plasma concentration v. time curve (AUClast)) and 5360 ng·h/mL in data set [1] (ICR, mouse, plasma, po, 10 mg/kg, read-out: AUClast, plasma). The Kp at 2 h in data set [1] (brain/plasma, ICR mouse, oral 10 mg/kg, 2 hr, read-out: brain-plasma drug concentration ratio (B/P ratio)) is 0.08.
The EC50 is the concentration giving half of the maximal effect. As for `COCCOCc1cc(NC2CCN(C(=O)Nc3cc(C(F)(F)F)cc(C(F)(F)F)c3)CC2)c2[nH]c(-c3ccccc3)cc2c1` [Example 41, N-[3,5-bis(trifluoromethyl)phenyl]-4-[[5-(2-methoxyethoxymethyl)-2-phenyl-1H-indol-7-yl]amino]piperidine-1-carboxamide], the EC50 with H9C2 cells is above 1 µM.
Same read-out and setting: the result for `COCCOCc1cc(NC2CCN(C(=O)Nc3cc(Cl)cc(Cl)c3)CC2)c2[nH]c(-c3ccccc3)cc2c1` [Example 42, N-(3,5-dichlorophenyl)-4-[[5-(2-methoxyethoxymethyl)-2-phenyl-1H-indol-7-yl]amino]piperidine-1-carboxamide] reads 0.3 to 1 µM; that for `COCCOCc1cc(NCc2cccs2)c2[nH]c(-c3ccccc3)cc2c1` [Example 43, 5-(2-methoxyethoxymethyl)-2-phenyl-N-(2-thienylmethyl)-1H-indol-7-amine], 0.3 to 1 µM; that for `CCOC(=O)N1CCC(Nc2cc(COCCOC)cc3cc(-c4ccccc4)[nH]c23)CC1` [Example 44, Ethyl 4-[[5-(2-methoxyethoxymethyl)-2-phenyl-1H-indol-7-yl]amino]piperidine-1-carboxylate], at most 0.3 µM.
`COCCNc1cc(COCCOC)cc2cc(-c3ccccc3)[nH]c12` [Example 46, 5-(2-methoxyethoxymethyl)-N-(2-methoxyethyl)-2-phenyl-1H-indol-7-amine]: in the data set with H9C2 cells, the EC50 was at most 0.3 µM.
As for `COCCCNc1cc(COCCOC)cc2cc(-c3ccccc3)[nH]c12` [Example 47, 5-(2-methoxyethoxymethyl)-N-(3-methoxypropyl)-2-phenyl-1H-indol-7-amine], the EC50 in the data set with H9C2 cells was at most 0.3 µM.
The same measure, in the same setting: the result for `COCCOCc1cc(NC2CCOCC2)c2[nH]c(-c3cccc(F)c3)cc2c1` [Example 48, 2-(3-fluorophenyl)-5-(2-methoxyethoxymethyl)-N-tetrahydropyran-4-yl-1H-indol-7-amine] reads at most 0.3 µM; that for `COCCOCc1cc(NC2CCCC2)c2[nH]cc(C)c2c1` [Example 49, N-cyclopentyl-5-(2-methoxyethoxymethyl)-3-methyl-1H-indol-7-amine], 0.3 to 1 µM.
The same measure, in the same setting: for `COCCOCc1cc(NC2CCCC2)c2[nH]cc(-c3ccccc3)c2c1` [Example 51, N-cyclopentyl-5-(2-methoxyethoxymethyl)-3-phenyl-1H-indol-7-amine] the value was at most 0.3 µM; for `COCCOCc1cc(NC2CCOCC2)c2[nH]cc(-c3ccccc3)c2c1` [Example 52, 5-(2-methoxyethoxymethyl)-3-phenyl-N-tetrahydropyran-4-yl-1H-indol-7-amine], at most 0.3 µM.
The same measure, in the same setting: the result for `COCCOCc1cc(NC2CCOCC2)c2c(c1)cc(-c1ccccc1)n2C` [Example 53, 5-((2-methoxyethoxy)methyl)-1-methyl-2-phenyl-N-(tetrahydro-2H-pyran-4-yl)-1H-indol-7-amine] reads 0.3 to 1 µM; that for `COCCOCc1cc(NC2CCCC2)c2[nH]c(-c3ccc(Br)cc3)cc2c1` [Example 54, 2-(4-bromophenyl)-N-cyclopentyl-5-((2-methoxyethoxy)methyl)-1H-indol-7-amine], at most 0.3 µM.
Turning to `COCCOCc1cc(NC2CCOCC2)c2[nH]c(-c3ccc(Br)cc3)cc2c1` [Example 55, 2-(4-bromophenyl)-5-((2-methoxyethoxy)methyl)-N-(tetrahydro-2H-pyran-4-yl)-1H-indol-7-amine], the EC50 in the data set on H9C2 cells is at most 0.3 µM.
The same measure, in the same setting: the result for `COCCOCc1cc(NC2CCCC2)c2[nH]c(-c3ccc(P(C)(C)=O)cc3)cc2c1` [Example 56, (4-(7-(cyclopentylamino)-5-((2-methoxyethoxy)methyl)-1H-indol-2-yl)phenyl)dimethylphosphine oxide] reads at most 0.3 µM; that for `COCCOCc1cc(NC2CCOCC2)c2[nH]c(-c3ccc(P(C)(C)=O)cc3)cc2c1` [Example 57], above 1 µM; that for `COCCOCc1cc(NC2CCCC2)c2[nH]c(-c3ccc(C#CC(C)(C)O)cc3)cc2c1` [Example 58, 4-(4-(7-(cyclopentylamino)-5-((2-methoxyethoxy)methyl)-1H-indol-2-yl)phenyl)-2-methylbut-3-yn-2-ol], 0.3 to 1 µM.
On the same count and under the same terms, for `COCCOCc1cc(NC2CCOCC2)c2[nH]c(-c3ccc(C#CC(C)(C)O)cc3)cc2c1` [Example 59, 4-(4-(5-((2-methoxyethoxy)methyl)-7-((tetrahydro-2H-pyran-4-yl)amino)-1H-indol-2-yl)phenyl)-2-methylbut3-yn-2-ol] the value was 0.3 to 1 µM; for `COCCOCc1cc(NC2CCOCC2)c2[nH]c(-c3ccc(C)cc3)cc2c1` [Example 60, 5-((2-methoxyethoxy)methyl)-N-(tetrahydro-2H-pyran-4-yl)-2-(p-tolyl)-1H-indol-7-amine], at most 0.3 µM; for `COCCCOCc1cc(NC2CCCC2)c2[nH]c(-c3ccccc3)cc2c1` [Example 61, N-cyclopentyl-5-((3-methoxypropoxy)methyl)-2-phenyl-1H-indol-7-amine], at most 0.3 µM.
The same measure, in the same setting: for `COCCCOCc1cc(NC2COC2)c2[nH]c(-c3ccccc3)cc2c1` [Example 62, 5-((3-methoxypropoxy)methyl)-N-(oxetan-3-yl)-2-phenyl-1H-indol-7-amine] the value was at most 0.3 µM.
As to `COCCCOCc1cc(NC2CCOCC2)c2[nH]c(-c3ccccc3)cc2c1` [Example 63, 5-((3-methoxypropoxy)methyl)-2-phenyl-N-(tetrahydro-2H-pyran-4-yl)-1H-indol-7-amine], the EC50 in the data set with H9C2 cells lay in the range of 0.3 to 1 µM.
Consider `COCCOCCCc1cc(NC2CCOCC2)c2[nH]c(-c3ccccc3)cc2c1` [Example 65, 5-(3-(2-methoxyethoxy)propyl)-2-phenyl-N-(tetrahydro-2H-pyran-4-yl)-1H-indol-7-amine], for which the EC50 with H9C2 cells is at most 0.3 µM.
On to `COCCOCCc1cc(NC2CCCC2)c2[nH]c(-c3ccccc3)cc2c1` [Example 66, N-cyclopentyl-5-(2-(2-methoxyethoxy)ethyl)-2-phenyl-1H-indol-7-amine], for which, in the data set on H9C2 cells, the EC50 was at most 0.3 µM.
As to `COCCOCCc1cc(NC2CCOCC2)c2[nH]c(-c3ccccc3)cc2c1` [Example 67, 5-(2-(2-methoxyethoxy)ethyl)-2-phenyl-N-(tetrahydro-2H-pyran-4-yl)-1H-indole-7-amine], the EC50 in the data set with H9C2 cells is at most 0.3 µM.
Regarding `COCCOCc1cc(N2CCCCC2)c2[nH]c(-c3ccccc3)cc2c1` [Example 68, 5-((2-methoxyethoxy)methyl)-2-phenyl-7-(piperidin-1-yl)-1H-indole], the EC50 in the data set on H9C2 cells is above 1 µM.
